This assay deals with xanthine oxidase (Homo sapiens, UniProt P47989). Put plainly: Inhibition of xanthine oxidase activity. Particulars: observed by the inventors, in words. The assay is classed as biochemical.

SMILES strings stand for the structures.

Sequence of xanthine oxidase (P47989 whole entry, species assumed): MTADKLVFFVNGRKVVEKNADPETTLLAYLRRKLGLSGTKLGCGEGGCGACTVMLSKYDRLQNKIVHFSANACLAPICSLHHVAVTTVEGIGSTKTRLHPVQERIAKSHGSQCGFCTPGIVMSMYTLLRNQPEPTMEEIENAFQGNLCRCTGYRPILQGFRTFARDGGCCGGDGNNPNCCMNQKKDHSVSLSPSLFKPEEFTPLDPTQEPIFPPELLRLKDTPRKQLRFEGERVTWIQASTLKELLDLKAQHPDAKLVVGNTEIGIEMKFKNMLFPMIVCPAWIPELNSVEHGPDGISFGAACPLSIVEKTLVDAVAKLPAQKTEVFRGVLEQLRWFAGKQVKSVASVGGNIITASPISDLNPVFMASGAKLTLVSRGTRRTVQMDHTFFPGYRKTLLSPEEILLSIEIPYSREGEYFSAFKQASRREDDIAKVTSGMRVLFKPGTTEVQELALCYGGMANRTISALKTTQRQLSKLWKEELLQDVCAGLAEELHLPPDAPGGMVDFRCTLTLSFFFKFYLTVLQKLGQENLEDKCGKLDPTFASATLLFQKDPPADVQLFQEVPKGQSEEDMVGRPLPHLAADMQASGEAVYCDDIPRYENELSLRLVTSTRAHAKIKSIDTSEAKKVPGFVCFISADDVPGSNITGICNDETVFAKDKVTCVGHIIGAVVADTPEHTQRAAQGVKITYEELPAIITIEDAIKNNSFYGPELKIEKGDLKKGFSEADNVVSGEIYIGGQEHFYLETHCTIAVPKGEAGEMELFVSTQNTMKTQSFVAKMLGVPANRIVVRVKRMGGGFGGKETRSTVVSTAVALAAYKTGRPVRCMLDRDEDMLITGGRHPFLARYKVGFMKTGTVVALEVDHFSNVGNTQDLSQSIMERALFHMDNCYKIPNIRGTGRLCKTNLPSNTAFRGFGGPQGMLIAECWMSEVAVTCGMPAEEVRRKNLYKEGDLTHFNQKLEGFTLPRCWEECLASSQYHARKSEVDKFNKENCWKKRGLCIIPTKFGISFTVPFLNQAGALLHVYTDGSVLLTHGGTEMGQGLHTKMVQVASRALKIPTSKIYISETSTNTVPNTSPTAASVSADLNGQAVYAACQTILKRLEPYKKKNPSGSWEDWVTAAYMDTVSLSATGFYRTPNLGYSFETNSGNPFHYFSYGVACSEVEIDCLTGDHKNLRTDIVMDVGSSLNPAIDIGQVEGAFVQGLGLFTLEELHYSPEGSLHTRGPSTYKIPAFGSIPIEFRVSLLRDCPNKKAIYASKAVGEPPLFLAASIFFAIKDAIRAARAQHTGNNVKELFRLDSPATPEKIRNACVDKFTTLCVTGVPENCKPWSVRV

With `O=C(O)c1cc(O)c(O)c(O)c1Oc1cc2c(=O)oc3c(O)c(O)cc4c(=O)oc(c1O)c2c34` [valoneic acid dilactone], the “inhibition of xanthine oxidase activity” value is “inhibition of xanthine oxidase activity”.

The record behind these values is patent US20060198907A1, “Pharmaceutical, therapeutic, and dietary compositions derived from Lagerstroemia speciosa L. plant” (priority 2004, published 2006).
